Measurements published in PubChem BioAssay AID1963866 (Molecular Pharmacology Branch, DTP, NCI, 2024).

Tested on: PDC KRAS tumor spheroids with HUVEC/MSC, viability
Experiment: Anticancer human tumor 349418-098-R-PDC patient-derived lung adenocarcinoma cell line growth inhibition [KRAS2]
Conditions: for IC50: curve of first compound; for viability, T/C: stronger effect = lower value
How it was run: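 Combination screen of spheroid viability in tumor-cell co-cultures with endothelial (HUVEC) and mesenchymal stem cell stroma. Each agent was tested in half-log dilutions, topping at clinical Cmax or at 10 microM without a known Cmax.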

[1] = second compound 0.1 µM, first compound 0.0316 µM
[2] = second compound 0.1 µM, first compound 0.1 µM
[3] = second compound 0.1 µM, first compound 0.316 µM
[4] = second compound 0.1 µM, first compound 1 µM
[5] = second compound 0.1 µM, first compound 3.16 µM
[6] = second compound 0.1 µM, first compound 10 µM
[7] = second compound 0.316 µM, first compound 0.0316 µM
[8] = second compound 0.316 µM, first compound 0.1 µM
[9] = second compound 0.316 µM, first compound 0.316 µM
[10] = second compound 0.316 µM, first compound 1 µM
[11] = second compound 0.316 µM, first compound 3.16 µM
[12] = second compound 0.316 µM, first compound 10 µM
[13] = second compound 1 µM, first compound 0.0316 µM
[14] = second compound 1 µM, first compound 0.1 µM
[15] = second compound 1 µM, first compound 0.316 µM
[16] = second compound 1 µM, first compound 1 µM
[17] = second compound 1 µM, first compound 3.16 µM
[18] = second compound 1 µM, first compound 10 µM
[19] = second compound 3.16 µM, first compound 0.0316 µM
[20] = second compound 3.16 µM, first compound 0.1 µM
[21] = second compound 3.16 µM, first compound 0.316 µM
[22] = second compound 3.16 µM, first compound 1 µM
[23] = second compound 3.16 µM, first compound 3.16 µM
[24] = second compound 3.16 µM, first compound 10 µM
[25] = second compound 10 µM, first compound 0.0316 µM
[26] = second compound 10 µM, first compound 0.1 µM
[27] = second compound 10 µM, first compound 0.316 µM
[28] = second compound 10 µM, first compound 1 µM
[29] = second compound 10 µM, first compound 3.16 µM
[30] = second compound 10 µM, first compound 10 µM
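Note: spheroids exposed to compounds for seven days before readout.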

Row | Compound | IC50 (second compound 0.1 µM) [nM] | IC50 (second compound 0.316 µM) [nM] | IC50 (second compound 1 µM) [nM] | IC50 (second compound 3.16 µM) [nM] | IC50 (second compound 10 µM) [nM] | viability, T/C [1] [%] | viability, T/C [2] [%] | viability, T/C [3] [%] | viability, T/C [4] [%] | viability, T/C [5] [%] | viability, T/C [6] [%] | viability, T/C [7] [%] | viability, T/C [8] [%] | viability, T/C [9] [%] | viability, T/C [10] [%] | viability, T/C [11] [%] | viability, T/C [12] [%] | viability, T/C [13] [%] | viability, T/C [14] [%] | viability, T/C [15] [%] | further results
1 | COc1cc(Nc2ncc3c(n2)-c2ccc(Cl)cc2C(c2c(F)cccc2OC)=NC3)ccc1C(=O)O + COc1cc2nc(C)nc(NC(C)c3cc(N)cc(C(F)(F)F)c3)c2cc1OC1CCOC1 | 47.4 | 36 | < 31.6 | < 31.6 | < 31.6 | 60 | 30.7 | 31.8 | 34.2 | 23.3 | 23.8 | 52.8 | 27.4 | 30.8 | 26.5 | 25.4 | 23.4 | 48.5 | 31.2 | 36.2 | viability, T/C [16]: 33%; viability, T/C [17]: 28.3%; viability, T/C [18]: 20.5%; viability, T/C [19]: 45.8%; viability, T/C [20]: 29.4%; viability, T/C [21]: 28%; viability, T/C [22]: 25.5%; viability, T/C [23]: 18.4%; viability, T/C [24]: 19.1%; viability, T/C [25]: 16.7%; viability, T/C [26]: 22%; viability, T/C [27]: 12.4%; viability, T/C [28]: 9.24%; viability, T/C [29]: 16.1%; viability, T/C [30]: 6%
2 | COc1cc2nccc(Oc3ccc(NC(=O)C4(C(=O)Nc5ccc(F)cc5)CC4)cc3)c2cc1OC + COc1cc2nc(C)nc(NC(C)c3cc(N)cc(C(F)(F)F)c3)c2cc1OC1CCOC1 | 936 | 732 | 656 | 611 | < 31.6 | 111 | 107 | 81.8 | 9.71 | 21.9 | 113 | 102 | 97.3 | 71.2 | 8.51 | 15.3 | 103 | 109 | 97.7 | 65.4 | viability, T/C [16]: 8.96%; viability, T/C [17]: 12.7%; viability, T/C [18]: 102%; viability, T/C [19]: 98.4%; viability, T/C [20]: 85.6%; viability, T/C [21]: 72.6%; viability, T/C [22]: 6.65%; viability, T/C [23]: 2.1%; viability, T/C [24]: 90.6%; viability, T/C [25]: 44.6%; viability, T/C [26]: 11.7%; viability, T/C [27]: 7.86%; viability, T/C [28]: 0.78%; viability, T/C [29]: 0.14%; viability, T/C [30]: 61.9%
